Measured values: patent US11447486B2, “2-amino-benzimidazole derivatives and their use as 5-lipoxygenase and/or prostaglandin E synthase inhibitors” (INSTITUT PASTEUR KOREA, priority 2014, dated 2022)

Tests used:
[1] = system: Rat basophilic leukemia (RBL) cells; assay: LTB4 secretion assay in RBL (rat basophilic leukemia cells); assay type: cell-based; conditions: Rattus norvegicus, RBL
Summary of the method: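 LTB4 released into supernatant was measured by EIA after 10 min at 37 °C with arachidonic acid (2.5 uM final) and calcium ionophore A23187 (5 uM final). Before stimulation, cells plated 2×10^4/well overnight received compound doses (5 nM to 100 uM) for 15 min in 0.5% FBS medium.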

human 5-LOX = molecular target: T1, human 5-LOX (Homo sapiens, UniProt P09917); assay: 5-LOX enzyme activity, fluorescence method (5-HPETE, H2DCFDA); assay type: biochemical; conditions: read-out: 5-LO (IC50)
T1 construct: purchased Cayman 60402; host or cells: insect cells (lysate)
T1 sequence (P09917 1-674): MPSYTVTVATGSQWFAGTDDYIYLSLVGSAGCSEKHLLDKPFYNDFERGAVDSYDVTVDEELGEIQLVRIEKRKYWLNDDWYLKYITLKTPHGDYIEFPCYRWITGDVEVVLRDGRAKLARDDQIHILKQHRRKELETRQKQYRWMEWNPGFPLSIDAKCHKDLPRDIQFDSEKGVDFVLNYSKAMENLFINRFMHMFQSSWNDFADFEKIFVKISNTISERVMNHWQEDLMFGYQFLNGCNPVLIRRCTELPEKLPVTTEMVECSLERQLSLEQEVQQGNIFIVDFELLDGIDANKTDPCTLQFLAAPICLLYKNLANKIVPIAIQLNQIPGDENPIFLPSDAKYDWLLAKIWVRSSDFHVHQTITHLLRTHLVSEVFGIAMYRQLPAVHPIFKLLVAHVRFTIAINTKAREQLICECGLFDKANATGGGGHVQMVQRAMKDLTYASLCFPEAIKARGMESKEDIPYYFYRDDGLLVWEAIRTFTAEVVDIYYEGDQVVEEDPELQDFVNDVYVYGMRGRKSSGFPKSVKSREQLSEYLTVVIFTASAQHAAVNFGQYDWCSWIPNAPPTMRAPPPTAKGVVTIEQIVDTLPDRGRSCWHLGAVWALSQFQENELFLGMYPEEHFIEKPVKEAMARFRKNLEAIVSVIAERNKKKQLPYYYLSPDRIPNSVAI
Summary of the method: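 Fluorescence-based read-out, run entirely at room temperature. Enzyme mixture was exposed to a dose range of compound from 0.5 nM to 10 uM for 5 min before ATP and arachidonic acid were added to final levels of 100 uM and 3 uM.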

Rat whole blood (RWB) = assay: LTB4 secretion assay in RWB (rat whole blood); assay type: cell-based; conditions: Rattus norvegicus
Experimental: Rat blood was drawn from caudal vena cava from male Sprague Dawley rat (6-9 weeks old) in vacuette coated with sodium heparin (Greiner bio-one, Cat #455051). The blood was pooled and diluted with RPMI (WelGENE, Cat #LM 011-05) to 1:1. The diluted blood was aliquoted into 96 well plate (200 ul per well) and compounds were added in dose response to a desired concentration ranging from 2.5 nM to 50 uM. After 15 min of pre-incubation at 37° C., calcium ionophore (A23187) was added to the final concentration of 10 uM. After 10 min of further incubation at 37° C., the LTB4 production was stopped by diluting the reaction mixture with ice cold PBS (1:4 dilutions). Cells were removed by centrifugation at 1000×g, 4° C. for 10 min, and the supernatant was transferred and then the quantification of LTB4 was done with Leukotriene B4 EIA kit (Cayman, Cat #520111) as instructed.

Structure (SMILES) | EC50 [1] [µM] | IC50 (human 5-LOX) [µM] | EC50 (Rat whole blood (RWB)) [µM]
Nc1ccc2nc(N3CCCC3)n(CCOc3ccc(OC(F)(F)F)cc3)c2c1 [Compound 51] | < 10 | < 1 | 10 to 20
Cn1c(NCCOc2ccc(OC(F)(F)F)cc2)nc2ccc(N)cc21 [Compound 52] | < 10 | < 1 | < 10
Nc1ccc2c(c1)nc(N1CCCC1)n2CCOc1ccc(OC(F)(F)F)cc1 [Compound 55] | < 10 | 1 to 10 | > 20
Cn1c(NCCOc2ccc(OC(F)(F)F)cc2Cl)nc2ccc(N)cc21 [Compound 56] | < 10 | < 1 | 10 to 20
Cn1c(NCCOc2ccc(OC(F)(F)F)cc2Cl)nc2cc(N)ccc21 [Compound 57] | < 10 | < 1 | > 20
Cn1c(NCCOc2ccc(OC(F)(F)F)c(Cl)c2)nc2ccc(N)cc21 [Compound 58] | < 10 | < 1 | > 20
Cn1c(NCCOc2ccc(OC(F)(F)F)c(Cl)c2)nc2cc(N)ccc21 [Compound 59] | < 10 | < 1 | > 20
Nc1ccc2nc(NCCOc3ccc(OC(F)(F)F)cc3)[nH]c2c1 [Compound 62] | < 10 | < 1 | < 10
CC(C)(C)Nc1nc2ccc(N)cc2n1CCOc1ccc(OC(F)(F)F)cc1 [Compound 65] | < 10 | < 1 | < 10
CC(C)(C)Nc1nc2cc(N)ccc2n1CCOc1ccc(OC(F)(F)F)cc1 [Compound 66] | < 10 | < 1 | > 20
CC(C)(C)Nc1nc2ccc(N)cc2n1CC(=O)Nc1ccc(OC(F)(F)F)cc1 [Compound 67] | < 10 | < 1 | > 20
Nc1ccc2nc(N3CCC3)n(CCOc3ccc(OC(F)(F)F)cc3)c2c1 [Compound 68] | < 10 | < 1 | > 20
Nc1ccc2c(c1)nc(N1CCC1)n2CCOc1ccc(OC(F)(F)F)cc1 [Compound 70] | < 10 | < 1 | > 20
Nc1ccc2[nH]c(NCCc3ccc(Cl)cc3Cl)nc2c1 [Compound 73] | < 10 | < 1 | 10 to 20
CC(Nc1nc2cc(N)ccc2[nH]1)c1ccc(Cl)cc1Cl (stereo not drawn) [Compound 74] | < 10 | < 1 | 10 to 20
Nc1nc2cc(NCCOc3ccc(OC(F)(F)F)cc3)ccc2[nH]1 [Compound 75] | 10 to 20 | < 1 | > 20
Fc1ccc(CNc2nc3ccc(N4CCC(Oc5ccc(OC(F)(F)F)cc5)C4)cc3[nH]2)cc1 (stereo not drawn) [Compound 77] | 10 to 20 | < 1 | < 10
Nc1ccc2[nH]c(NCc3ccc(OC(F)(F)F)cc3)nc2c1 [Compound 79] | < 10 | < 1 | < 10
Nc1ccc2[nH]c(NCc3ccc(Oc4ccccc4)cc3)nc2c1 [Compound 80] | < 10 | < 1 | < 10
Nc1ccc2[nH]c(NCc3ccc4ccccc4c3)nc2c1 [Compound 81] | < 10 | < 1 | < 10
c1ccc(Oc2ccc(CNc3nc4cc(NC5COC5)ccc4[nH]3)cc2)cc1 [Compound 87] | < 10 | < 1 | < 10
Nc1ccc2[nH]c(NCc3ccc(Oc4ccc(OC(F)(F)F)cc4)cc3)nc2c1 [Compound 88] | < 10 | < 1 | < 10
Nc1ccc2[nH]c(NCc3ccc(Sc4ccc(Cl)cc4)cc3)nc2c1 [Compound 92] | < 10 | < 1 | < 10
CC(C)(C)Nc1ccc2nc(N)n(CCOc3ccc(OC(F)(F)F)cc3)c2c1 [Compound 93] | < 10 | < 1 | > 20
Nc1ccc2[nH]c(NCc3ccc(Oc4ccc(F)cc4)cc3)nc2c1 [Compound 94] | < 10 | < 1 | < 10
c1ccc(Oc2ccc(CNc3nc4cc(NC5CCCC5)ccc4[nH]3)cc2)cc1 [Compound 97] | < 10 | < 1 | < 10
Nc1ccc2[nH]c(NCc3cccc(Oc4ccc(Cl)cc4)c3)nc2c1 [Compound 101] | < 10 | < 1 | < 10
CNc1nc2ccc(N3CCC(Oc4ccc(OC(F)(F)F)cc4)C3)cc2[nH]1 (stereo not drawn) [Compound 104] | < 10 | < 1 | > 20

Now from value to molecule:

EC50 [1] [µM] | IC50 (human 5-LOX) [µM] | EC50 (Rat whole blood (RWB)) [µM] | Structure (SMILES)
< 10 | < 1 | > 20 | CN(C)c1nc2ccc(N3CCC(Oc4ccc(OC(F)(F)F)cc4)C3)cc2[nH]1 (stereo not drawn) [Compound 105]
< 10 | < 1 | < 10 | Nc1ccc2nc(NCc3ccc(C(=O)c4ccccc4)cc3)[nH]c2c1 [Compound 106]
> 20 | < 1 | > 20 | Nc1ccc2[nH]c(NCc3ccc(N4CCC(c5ccc(OC(F)(F)F)cc5)CC4)cc3)nc2c1 [Compound 108]
< 10 | < 1 | < 10 | CC(Nc1nc2cc(N)ccc2[nH]1)c1ccc(Oc2ccc(Cl)cc2)cc1 (stereo not drawn) [Compound 110]
< 10 | < 1 | 10 to 20 | Nc1ccc2[nH]c(NCc3ccc(Oc4ccc(Cl)c(Cl)c4)cc3)nc2c1 [Compound 112]
< 10 | < 1 | < 10 | Nc1ccc2[nH]c(NCc3ccc(Oc4ccc(F)c(F)c4)cc3)nc2c1 [Compound 113]
< 10 | < 1 | < 10 | CN(C)c1nc2cc(NCc3ccc(Oc4ccc(Cl)cc4)cc3)ccc2[nH]1 [Compound 123]
< 10 | < 1 | < 10 | Clc1ccc(Oc2ccc(CNc3nc4cc(NC5COC5)ccc4[nH]3)cc2)cc1 [Compound 125]
< 10 | < 1 | > 20 | CN(C)c1nc2cc(NCc3ccc(Oc4ccc(OC(F)(F)F)cc4)cc3)ccc2[nH]1 [Compound 126]
< 10 | < 1 | > 20 | CC(Nc1ccc2[nH]c(N(C)C)nc2c1)c1ccc(Oc2ccc(OC(F)(F)F)cc2)cc1 (stereo not drawn) [Compound 127]
< 10 | < 1 | > 20 | CCC(Nc1ccc2[nH]c(N(C)C)nc2c1)c1ccc(Oc2ccc(Cl)cc2)cc1 (stereo not drawn) [Compound 128]
< 10 | < 1 | > 20 | Nc1ccc2[nH]c(NCc3ccc(S(=O)(=O)c4ccc(Cl)cc4)cc3)nc2c1 [Compound 129]
< 10 | < 1 | < 10 | Nc1ccc2nc(NCc3ccc(C(=O)c4ccc(Cl)cc4)cc3)[nH]c2c1 [Compound 130]
< 10 | < 1 | > 20 | CCC(Nc1ccc2[nH]c(N(C)C)nc2c1)c1ccc(Oc2ccc(OC(F)(F)F)cc2)cc1 (stereo not drawn) [Compound 132]
< 10 | < 1 | 10 to 20 | Nc1ccc2[nH]c(NCc3ccc(Oc4ccc(Cl)cc4Cl)cc3)nc2c1 [Compound 135]
< 10 | < 1 | < 10 | Nc1ccc2[nH]c(NCc3ccc(Oc4ccc(Cl)nc4)cc3)nc2c1 [Compound 136]
< 10 | < 1 | < 10 | N#CC1(Nc2ccc3[nH]c(NCc4ccc(Oc5ccc(Cl)cc5)cc4)nc3c2)CCC1 [Compound 137]
< 10 | < 1 | < 10 | Nc1ccc2[nH]c(NCc3ccc(Oc4ccc(Cl)cn4)cc3)nc2c1 [Compound 138]
< 10 | < 1 | < 10 | Nc1ccc2[nH]c(N3CCCC3c3ccc(Oc4ccc(Cl)cc4)cc3)nc2c1 (stereo not drawn) [Compound 145]
< 10 | < 1 | > 20 | COCCNc1nc2ccc(N3CCC(Oc4ccc(OC(F)(F)F)cc4)C3)cc2[nH]1 (stereo not drawn) [Compound 148]
